Experimental data from ChEMBL document CHEMBL4808193, “[11]-Chaetoglobosins from Pseudeurotium bakeri Induce G2/M Cell Cycle Arrest and Apoptosis in Human Cancer Cells” (J Nat Prod, 2021).
Where a name gives a salt, the structure may show the parent alone.

Columns and labels:
L02 = experiment: Cytotoxicity against human L02 cells assessed as reduction in cell viability by MTT assay; assay type: cell-based
HeLa = experiment: Cytotoxicity against human HeLa cells assessed as reduction in cell viability by MTT assay; assay type: functional, cell-based
MCF7 [1] = experiment: Cytotoxicity against human MCF7 cells assessed as reduction in cell viability by MTT assay; assay type: functional, cell-based
HT-29 = experiment: Cytotoxicity against human HT-29 cells assessed as reduction in cell viability by MTT assay; assay type: functional, cell-based
HCT-116 = experiment: Cytotoxicity against human HCT-116 cells assessed as reduction in cell viability by MTT assay; assay type: functional, cell-based
HepG2 = experiment: Cytotoxicity against human HepG2 cells assessed as reduction in cell viability by MTT assay; assay type: functional, cell-based
A549 = experiment: Cytotoxicity against human A549 cells assessed as reduction in cell viability by MTT assay; assay type: functional, cell-based
A-427 [2] = experiment: Cytotoxicity against human A-427 cells assessed as reduction in cell viability by MTT assay; assay type: functional, cell-based
A-427 [3] = experiment: Cell cycle arrest in human A-427 cells assessed as accumulation at G2/M phase at 2.5 uM measured after 24 hrs by PI staining based flow cytometry (reference value: 18.80%); assay type: functional
MCF7 [4] = experiment: Cell cycle arrest in human MCF7 cells assessed as accumulation at G2/M phase at 4.5 uM measured after 24 hrs by PI staining based flow cytometry (reference value: 15.28%); assay type: functional
A-427 [5] = experiment: Induction of apoptosis in human A-427 cells assessed as early apoptotic cells at 5 uM measured after 24 hrs by Annexin V-FITC/propidium iodide staining based flow cytometric analysis (reference value: 6.58%); assay type: functional
A-427 [6] = experiment: Induction of apoptosis in human A-427 cells assessed as early apoptotic cells at 10 uM measured after 24 hrs by Annexin V-FITC/propidium iodide staining based flow cytometric analysis (reference value: 6.58%); assay type: functional
A-427 [7] = experiment: Cell cycle arrest in human A-427 cells assessed as accumulation at S phase at 10 uM measured after 24 hrs by PI staining based flow cytometry (reference value: 33.14%); assay type: functional
A-427 [8] = experiment: Cell cycle arrest in human A-427 cells assessed as accumulation at S phase at 2.5 uM measured after 24 hrs by PI staining based flow cytometry (reference value: 33.14%); assay type: functional
A-427 [9] = experiment: Cell cycle arrest in human A-427 cells assessed as accumulation at S phase at 5 uM measured after 24 hrs by PI staining based flow cytometry (reference value: 33.14%); assay type: functional
MCF7 [10] = experiment: Induction of apoptosis in human MCF7 cells assessed as early apoptotic cells at 10 uM measured after 24 hrs by Annexin V-FITC/propidium iodide staining based flow cytometric analysis (reference value: 1.49%); assay type: functional
A-427 [11] = experiment: Cell cycle arrest in human A-427 cells assessed as accumulation at G0/G1 phase at 5 uM measured after 24 hrs by PI staining based flow cytometry (reference value: 48.06%); assay type: functional
MCF7 [12] = experiment: Cell cycle arrest in human MCF7 cells assessed as accumulation at G0/G1 phase at 4.5 uM measured after 24 hrs by PI staining based flow cytometry (reference value: 50.58%); assay type: functional
A-427 [13] = experiment: Cell cycle arrest in human A-427 cells assessed as accumulation at G2/M phase at 10 uM measured after 24 hrs by PI staining based flow cytometry (reference value: 18.80%); assay type: functional
A-427 [14] = experiment: Induction of apoptosis in human A-427 cells assessed as late apoptotic cells at 10 uM measured after 24 hrs by Annexin V-FITC/propidium iodide staining based flow cytometric analysis (reference value: 2.06%); assay type: functional
A-427 [15] = experiment: Induction of apoptosis in human A-427 cells assessed as late apoptotic cells at 5 uM measured after 24 hrs by Annexin V-FITC/propidium iodide staining based flow cytometric analysis (reference value: 2.06%); assay type: functional
MCF7 [16] = experiment: Cell cycle arrest in human MCF7 cells assessed as accumulation at G0/G1 phase at 3 uM measured after 24 hrs by PI staining based flow cytometry (reference value: 50.58%); assay type: functional
MCF7 [17] = experiment: Cell cycle arrest in human MCF7 cells assessed as accumulation at G0/G1 phase at 1.5 uM measured after 24 hrs by PI staining based flow cytometry (reference value: 50.58%); assay type: functional
MCF7 [18] = experiment: Cell cycle arrest in human MCF7 cells assessed as accumulation at S phase at 4.5 uM measured after 24 hrs by PI staining based flow cytometry (reference value: 34.14%); assay type: functional
A-427 [19] = experiment: Induction of apoptosis in human A-427 cells assessed as late apoptotic cells at 2.5 uM measured after 24 hrs by Annexin V-FITC/propidium iodide staining based flow cytometric analysis (reference value: 2.06%); assay type: functional
MCF7 [20] = experiment: Cell cycle arrest in human MCF7 cells assessed as accumulation at S phase at 3 uM measured after 24 hrs by PI staining based flow cytometry (reference value: 34.14%; assay type: functional
MCF7 [21] = experiment: Cell cycle arrest in human MCF7 cells assessed as accumulation at G2/M phase at 3 uM measured after 24 hrs by PI staining based flow cytometry (reference value: 15.28%); assay type: functional
MCF7 [22] = experiment: Induction of apoptosis in human MCF7 cells assessed as late apoptotic cells at 5 uM measured after 24 hrs by Annexin V-FITC/propidium iodide staining based flow cytometric analysis (reference value: 0.38%); assay type: functional
MCF7 [23] = experiment: Induction of apoptosis in human MCF7 cells assessed as late apoptotic cells at 15 uM measured after 24 hrs by Annexin V-FITC/propidium iodide staining based flow cytometric analysis (reference value: 0.38%); assay type: functional
MCF7 [24] = experiment: Induction of apoptosis in human MCF7 cells assessed as early apoptotic cells at 15 uM measured after 24 hrs by Annexin V-FITC/propidium iodide staining based flow cytometric analysis (reference value: 1.49%); assay type: functional
A-427 [25] = experiment: Induction of apoptosis in human A-427 cells assessed as early apoptotic cells at 2.5 uM measured after 24 hrs by Annexin V-FITC/propidium iodide staining based flow cytometric analysis (reference value: 6.58%); assay type: functional
MCF7 [26] = experiment: Cell cycle arrest in human MCF7 cells assessed as accumulation at G2/M phase at 1.5 uM measured after 24 hrs by PI staining based flow cytometry (reference value: 15.28%); assay type: functional
MCF7 [27] = experiment: Induction of apoptosis in human MCF7 cells assessed as late apoptotic cells at 10 uM measured after 24 hrs by Annexin V-FITC/propidium iodide staining based flow cytometric analysis (reference value: 0.38%); assay type: functional
A-427 [28] = experiment: Cell cycle arrest in human A-427 cells assessed as accumulation at G2/M phase at 5 uM measured after 24 hrs by PI staining based flow cytometry (reference value: 18.80%); assay type: functional
MCF7 [29] = experiment: Induction of apoptosis in human MCF7 cells assessed as early apoptotic cells at 5 uM measured after 24 hrs by Annexin V-FITC/propidium iodide staining based flow cytometric analysis (reference value: 1.49%); assay type: functional
MCF7 [30] = experiment: Cell cycle arrest in human MCF7 cells assessed as accumulation at S phase at 1.5 uM measured after 24 hrs by PI staining based flow cytometry (reference value: 34.14%); assay type: functional
A-427 [31] = experiment: Cell cycle arrest in human A-427 cells assessed as accumulation at G0/G1 phase at 10 uM measured after 24 hrs by PI staining based flow cytometry (reference value: 48.06%); assay type: functional
A-427 [32] = experiment: Cell cycle arrest in human A-427 cells assessed as accumulation at G0/G1 phase at 2.5 uM measured after 24 hrs by PI staining based flow cytometry (reference value: 48.06%); assay type: functional

## CC1=C[C@@H]2/C=C/C[C@H](C)CCCCC(=O)[C@]23C(=O)N[C@@H](Cc2c[nH]c4ccccc24)[C@@H]3[C@@H]1C
L02
  IC50: > 50 µM
HeLa
  IC50: 20.3 µM
MCF7 [1]
  IC50: > 50 µM
HT-29
  IC50: > 50 µM
HCT-116
  IC50: 38.5 µM
HepG2
  IC50: > 50 µM
A549
  IC50: > 50 µM
A-427 [2]
  IC50: 13.8 µM

## CC(=O)O[C@@H]1CC(=O)C[C@@H](C)C/C=C/[C@H]2[C@H](O)C(C)=C(C)[C@H]3[C@H](Cc4c[nH]c5ccccc45)NC(=O)[C@@]23C1=O
L02
  IC50: > 50 µM
HeLa
  IC50: > 50 µM
MCF7 [1]
  IC50: > 50 µM
HT-29
  IC50: > 50 µM
HCT-116
  IC50: 21.2 µM
HepG2
  IC50: > 50 µM
A549
  IC50: 15.9 µM
A-427 [2]
  IC50: > 50 µM

## CC1=C[C@@H]2/C=C/C[C@H](C)CC(=O)[C@@H]3O[C@H]3C(=O)[C@]23C(=O)N[C@@H](Cc2c[nH]c4ccccc24)[C@@H]3[C@@H]1C
L02
  IC50: > 50 µM
HeLa
  IC50: > 50 µM
MCF7 [1]
  IC50: > 50 µM
HT-29
  IC50: 40.4 µM
HCT-116
  IC50: > 50 µM
HepG2
  IC50: 37.3 µM
A549
  IC50: 44 µM
A-427 [2]
  IC50: > 50 µM

## CC1=C(C)[C@H]2[C@H](Cc3c[nH]c4ccccc34)NC(=O)[C@]23C(=O)/C=C\CC[C@@H](C)C/C=C/[C@H]3[C@@H]1O
L02
  IC50: 41.8 µM
A-427 [3]
  Activity: 34.23%
MCF7 [4]
  Activity: 82.7%
A-427 [5]
  Activity: 20.64%
A-427 [6]
  Activity: 31.16%
A-427 [7]
  Activity: 22.03%
A-427 [8]
  Activity: 20.59%
A-427 [9]
  Activity: 21.59%
MCF7 [10]
  Activity: 11.17%
HeLa
  IC50: 10.1 µM
A-427 [11]
  Activity: 41.36%
MCF7 [12]
  Activity: 9.24%
A-427 [13]
  Activity: 42.41%
A-427 [14]
  Activity: 33.54%
A-427 [15]
  Activity: 33.06%
MCF7 [16]
  Activity: 17.36%
MCF7 [17]
  Activity: 23.65%
MCF7 [1]
  IC50: 6.8 µM
MCF7 [18]
  Activity: 8.06%
A-427 [19]
  Activity: 32.65%
MCF7 [20]
  Activity: 11.19%
MCF7 [21]
  Activity: 71.45%
MCF7 [22]
  Activity: 11.69%
MCF7 [23]
  Activity: 21.26%
HT-29
  IC50: 8.8 µM
MCF7 [24]
  Activity: 12.83%
A-427 [25]
  Activity: 18.24%
MCF7 [26]
  Activity: 58.41%
MCF7 [27]
  Activity: 15.06%
A-427 [28]
  Activity: 37.05%
MCF7 [29]
  Activity: 10.35%
MCF7 [30]
  Activity: 17.94%
HCT-116
  IC50: 11.2 µM
A-427 [31]
  Activity: 35.56%
HepG2
  IC50: 10.7 µM
A549
  IC50: 6.9 µM
A-427 [2]
  IC50: 7.5 µM
A-427 [32]
  Activity: 45.18%

## CO[C@@H]1/C=C\[C@@H](C)C/C=C/[C@H]2[C@H](O)C(C)=C(C)[C@H]3[C@H](Cc4c[nH]c5ccccc45)NC(=O)[C@@]23C(=O)C1
L02
  IC50: > 50 µM
HeLa
  IC50: 41.5 µM
MCF7 [1]
  IC50: > 50 µM
HT-29
  IC50: > 50 µM
HCT-116
  IC50: 26.1 µM
HepG2
  IC50: > 50 µM
A549
  IC50: 21.5 µM
A-427 [2]
  IC50: > 50 µM

## C[C@H]1C/C=C/[C@H]2C(=O)[C@H](C)[C@@H](C)[C@H]3[C@H](Cc4c[nH]c5ccccc45)NC(=O)[C@]32C(=O)CCCC1
L02
  IC50: > 50 µM
HeLa
  IC50: > 50 µM
MCF7 [1]
  IC50: > 50 µM
HT-29
  IC50: > 50 µM
HCT-116
  IC50: > 50 µM
HepG2
  IC50: > 50 µM
A549
  IC50: > 50 µM
A-427 [2]
  IC50: > 50 µM

## CC1=C(C)[C@H]2[C@H](Cc3c[nH]c4ccccc34)NC(=O)[C@]23C(=O)CCCC[C@@H](C)C/C=C/[C@H]3[C@@H]1O
L02
  IC50: 46.3 µM
HeLa
  IC50: 18.9 µM
MCF7 [1]
  IC50: > 50 µM
HT-29
  IC50: > 50 µM
HCT-116
  IC50: > 50 µM
HepG2
  IC50: > 50 µM
A549
  IC50: > 50 µM
A-427 [2]
  IC50: > 50 µM

## COc1cccc2c1C(=O)c1c(O)c3c(c(O)c1C2=O)C[C@@](O)(C(=O)CO)C[C@@H]3O[C@H]1C[C@H](N)[C@H](O)[C@H](C)O1 [DOXORUBICIN HYDROCHLORIDE]
L02
  IC50: 0.7 µM
HT-29
  IC50: 2.6 µM
HCT-116
  IC50: 2.9 µM
HepG2
  IC50: 0.4 µM

## CO[C@@H]1CC(=O)C[C@@H](C)C/C=C/[C@H]2C=C(C)[C@@H](C)[C@H]3[C@H](Cc4c[nH]c5ccccc45)NC(=O)[C@]32C1=O
L02
  IC50: > 50 µM
HeLa
  IC50: > 50 µM
MCF7 [1]
  IC50: > 50 µM
HT-29
  IC50: 43.8 µM
HCT-116
  IC50: 30.9 µM
HepG2
  IC50: 44.4 µM
A549
  IC50: 23.3 µM
A-427 [2]
  IC50: > 50 µM

## C=C1[C@@H](C)[C@H]2[C@H](Cc3c[nH]c4ccccc34)NC(=O)[C@]23C(=O)CCCC[C@@H](C)C/C=C/[C@H]3[C@@H]1O
L02
  IC50: > 50 µM
HeLa
  IC50: > 50 µM
MCF7 [1]
  IC50: > 50 µM
HT-29
  IC50: > 50 µM
HCT-116
  IC50: 45.3 µM
HepG2
  IC50: > 50 µM
A549
  IC50: 40.4 µM
A-427 [2]
  IC50: > 50 µM
